In US8846704B2, “Thiopyrimidine-based compounds and uses thereof” (YM Biosciences Austraila Pty Ltd, priority 2007, dated 2014) one finds GI50 and IC50 data, which are given here for 22 molecules.

Type in all cases: cell-based
Test [1] has as its target T1, BaF3 TELJAK2 cells (BafT_J2) (Homo sapiens, UniProt O60674).
T1 construct: fused on or other part: TEL (ETV6) N-terminal part, coding nucleotides 1-487, serves as the oligomerising partner; It is fused through a Sal I site to the JAK2 kinase domain and expressed from pTRE2 in BaF3 cells bearing pTET-off; P41212 (Transcription factor ETV6)
Put plainly: Cellular screening, BaF3 TEL:JAK2 cells, Alamar Blue. The settings on record: 40 hr, read-out: BafT_J2 IC50_nM. A digest of the protocol: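 Tet-off BaF3 cells carrying a TEL (nt 1-487)–JAK2 kinase-domain fusion, grown factor-independently in DMEM with 10% Tet-approved FBS without WEHI 3B medium. Compounds were diluted to 20 μM in screening plates, and cells (50,000–200,000 cell/mL at 1.1×) were incubated 40 hr at 37 °C, 5% CO2. Alamar Blue was then added for 4-6 hours; read at 544 nm.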
(Alamar Blue is a resazurin reagent that responds to reducing activity.)

Another test concerns the target T2, BaF3 TELJAK3 cells (Homo sapiens, UniProt P52333).
T2 construct: fused on or other part: TEL (ETV6) N-terminal part, coding nucleotides 1-487, serves as the oligomerising partner; It is fused through a Sal I site to the JAK3 kinase domain and expressed from pTRE2 in BaF3 cells bearing pTET-off; P41212 (Transcription factor ETV6)
T2 sequence (P52333 1-1124): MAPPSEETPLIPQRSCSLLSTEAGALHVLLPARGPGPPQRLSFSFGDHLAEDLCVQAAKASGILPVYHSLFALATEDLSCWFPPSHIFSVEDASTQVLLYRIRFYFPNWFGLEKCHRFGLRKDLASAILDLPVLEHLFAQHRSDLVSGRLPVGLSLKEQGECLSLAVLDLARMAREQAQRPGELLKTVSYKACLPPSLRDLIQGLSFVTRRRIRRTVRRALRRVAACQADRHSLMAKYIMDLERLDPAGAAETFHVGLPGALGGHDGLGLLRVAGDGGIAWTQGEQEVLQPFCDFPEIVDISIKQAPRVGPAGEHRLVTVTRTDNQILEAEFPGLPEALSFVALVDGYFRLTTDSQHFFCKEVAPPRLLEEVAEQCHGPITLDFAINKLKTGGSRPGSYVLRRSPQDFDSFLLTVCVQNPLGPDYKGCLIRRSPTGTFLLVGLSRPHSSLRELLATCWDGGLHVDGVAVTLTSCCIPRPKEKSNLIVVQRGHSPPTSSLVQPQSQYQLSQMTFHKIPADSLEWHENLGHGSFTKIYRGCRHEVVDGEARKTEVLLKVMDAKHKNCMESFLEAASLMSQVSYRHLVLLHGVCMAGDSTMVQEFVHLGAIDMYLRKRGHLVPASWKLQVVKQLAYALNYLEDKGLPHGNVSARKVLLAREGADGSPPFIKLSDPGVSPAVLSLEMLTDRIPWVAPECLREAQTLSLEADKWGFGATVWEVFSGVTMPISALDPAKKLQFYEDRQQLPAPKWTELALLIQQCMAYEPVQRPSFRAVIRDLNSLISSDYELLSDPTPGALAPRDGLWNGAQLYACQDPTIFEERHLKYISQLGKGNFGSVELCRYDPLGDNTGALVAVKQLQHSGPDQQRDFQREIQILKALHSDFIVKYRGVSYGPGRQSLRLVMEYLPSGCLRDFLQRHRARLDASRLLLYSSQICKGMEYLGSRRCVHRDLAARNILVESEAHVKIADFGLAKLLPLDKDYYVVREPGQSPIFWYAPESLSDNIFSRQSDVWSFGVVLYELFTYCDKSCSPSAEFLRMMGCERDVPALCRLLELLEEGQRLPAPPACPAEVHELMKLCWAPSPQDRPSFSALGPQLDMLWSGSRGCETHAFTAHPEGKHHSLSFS
Kind of test: Cellular screening, BaF3 TEL:JAK3 cells, Alamar Blue. The settings on record: 40 hr, read-out: BafT_J3 IC50_nM. A digest of the protocol:
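BaF3 cells carrying pTET-off and a TEL–JAK3 kinase-domain fusion, selected for growth-factor independence, were grown in DMEM with 10% Tet-approved FBS without WEHI 3B medium. Cells were exposed to compounds for 40 h at 37 °C, 5% CO2. Viability was read with Alamar Blue (4–6 h) at 544 nm.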

The subject of the next test is CTLL2. Put plainly: Cellular screening, CTLL2 cells, Alamar Blue. To be noted: Mus musculus, CTLL-2, read-out: CTLL2 IC50_nM. In short, it runs like this: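 CTLL2 cells in late log phase incubated with compound for 40 hr at 37° C, 5% CO2. Viability then read at 544 nm after a further 4-6 hours with Alamar Blue.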

Bounds are passed on as bounds.

T1 sequence (O60674 whole entry, change not shown, the tested form may be a part): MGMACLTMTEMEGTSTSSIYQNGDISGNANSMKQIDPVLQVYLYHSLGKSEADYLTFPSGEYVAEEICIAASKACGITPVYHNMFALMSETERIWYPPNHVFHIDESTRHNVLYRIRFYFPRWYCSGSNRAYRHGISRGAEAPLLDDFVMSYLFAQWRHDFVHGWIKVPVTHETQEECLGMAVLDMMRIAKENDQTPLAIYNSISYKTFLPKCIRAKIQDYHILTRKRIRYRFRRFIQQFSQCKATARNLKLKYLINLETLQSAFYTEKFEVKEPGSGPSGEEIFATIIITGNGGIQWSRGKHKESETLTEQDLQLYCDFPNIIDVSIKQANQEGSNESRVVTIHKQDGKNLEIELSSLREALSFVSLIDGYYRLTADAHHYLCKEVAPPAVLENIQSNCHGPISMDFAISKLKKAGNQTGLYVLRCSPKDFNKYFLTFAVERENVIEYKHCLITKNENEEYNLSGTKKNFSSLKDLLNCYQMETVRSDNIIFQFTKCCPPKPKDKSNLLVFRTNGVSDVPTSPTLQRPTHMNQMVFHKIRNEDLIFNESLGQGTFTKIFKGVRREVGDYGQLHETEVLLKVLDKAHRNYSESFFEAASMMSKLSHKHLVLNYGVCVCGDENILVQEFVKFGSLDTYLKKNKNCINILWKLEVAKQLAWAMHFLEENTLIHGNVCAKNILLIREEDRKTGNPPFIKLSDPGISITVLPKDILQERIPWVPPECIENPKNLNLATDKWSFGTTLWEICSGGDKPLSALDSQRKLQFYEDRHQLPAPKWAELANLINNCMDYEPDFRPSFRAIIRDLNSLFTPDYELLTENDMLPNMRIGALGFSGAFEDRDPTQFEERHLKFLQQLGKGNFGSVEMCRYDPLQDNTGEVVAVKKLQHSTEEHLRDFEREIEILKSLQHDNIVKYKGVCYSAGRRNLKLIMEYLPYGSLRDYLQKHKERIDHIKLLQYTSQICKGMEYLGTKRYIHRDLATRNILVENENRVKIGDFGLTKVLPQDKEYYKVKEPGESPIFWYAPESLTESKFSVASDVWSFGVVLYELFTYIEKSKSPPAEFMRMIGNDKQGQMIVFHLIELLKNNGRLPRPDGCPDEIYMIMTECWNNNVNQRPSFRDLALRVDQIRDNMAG

On to `C=CC(=O)Nc1cccc(Nc2nccc(Sc3cccc(OC)c3)n2)c1` [Compound 31, N-(3-(4-(3-methoxyphenylthio)pyrimidin-2-ylao)phenyl)acrylamide], for which the results for the GI50 (in test [1]; on BaF3 TELJAK3 cells) were less than 20 µM and less than 1 µM, respectively. For the same molecule, in the test on CTLL2, the IC50 is less than 1 µM.

Turning to `C=CC(=O)Nc1ccc(Sc2nc(Nc3ccc(OC)c(O)c3)ncc2C)cc1` [Compound 283, N-(4-(2-(3-hydroxy-4-methoxyphenylao)-5-methylpyrimidin-4-ylthio)phenyl)acrylamide], the GI50 in test [1] is less than 20 µM; on BaF3 TELJAK3 cells, less than 1 µM. The IC50 in the test with CTLL2 was less than 1 µM.

`COc1ccc(Nc2nccc(Sc3ccc(NC(=O)CC#N)cc3)n2)cc1OC` [Compound 101, 2-cyano-N-(4-(2-(3,4-dimethoxyphenylao)pyrimidin-4-ylthio)phenyl)acetamide]: the GI50 is less than 5 µM in test [1] and less than 1 µM at BaF3 TELJAK3 cells. Moreover, the IC50 in the test with CTLL2 was less than 20 µM.

Consider `C=CC(=O)N(C)c1ccc(Sc2ccnc(Nc3ccc(N4CCOCC4)cc3)n2)cc1` [Compound 91, N-methyl-N-(4-(2-(4-morpholinophenylao)pyrimidin-4-ylthio)phenyl)acrylamide], for which the GI50 in test [1] was less than 20 µM; on BaF3 TELJAK3 cells it was less than 1 µM. The IC50 in the test on CTLL2 was less than 1 µM.

As to `Nc1ccc(Sc2nc(Nc3ccc(N4CCOCC4)cc3)ncc2I)cc1` [Compound 309, 4-(4-aophenylthio)-5-iodo-N-(4-morpholinophenyl)pyrimidin-2-ae], the GI50 (in test [1]; at BaF3 TELJAK3 cells) was less than 5 µM each time. For the same molecule, the IC50 in the test on CTLL2 was less than 1 µM.

`C=CC(=O)Nc1ccc(Sc2nc(Nc3ccc(N4CCOCC4)cc3)ncc2-c2ccccc2)cc1` [Compound 307, N-(4-(2-(4-morpholinophenylao)-5-phenylpyrimidin-4-ylthio)phenyl)acrylamide]: the GI50 in test [1] is more than 20 µM; on BaF3 TELJAK3 cells, less than 20 µM. The IC50 with CTLL2 was more than 20 µM.

As for `C=CC(=O)Nc1ccc(Sc2ccnc(Nc3ccc(S(=O)(=O)N4CCN(C)CC4)cc3)n2)cc1` [Compound 370, N-(4-(2-(4-(4-methylpiperazin-1-ylsulfonyl)phenylao)pyrimidin-4-ylthio)phenyl)acrylamide], the GI50 in test [1] was less than 20 µM; at BaF3 TELJAK3 cells, less than 5 µM. In addition, the IC50 with CTLL2 was less than 5 µM.

For the molecule `C=CC(=O)Nc1ccc(Sc2nc(Nc3ccc(N4CCC(C(=O)OCC)CC4)cc3)ncc2C)cc1` [Compound 292, ethyl 1-(4-(4-(4-acrylamidophenylthio)-5-methylpyrimidin-2-ylao)phenyl)piperidine-4-carboxylate], the values for the GI50 (in test [1]; on BaF3 TELJAK3 cells) were more than 20 µM and less than 5 µM, respectively. Besides, the IC50 with CTLL2 was less than 5 µM.

As to `COc1cc(Sc2ccnc(Nc3ccc(N4CCOCC4)cc3)n2)ccc1N` [Compound 117, 4-(4-ao-3-methoxyphenylthio)-N-(4-morpholinophenyl)pyrimidin-2-ae], the GI50 is less than 20 µM in test [1] and more than 20 µM at BaF3 TELJAK3 cells. Further, the IC50 with CTLL2 is less than 20 µM.

On to `COc1cc(Nc2nccc(Sc3ccc(NCC#N)cc3)n2)cc(OC)c1OC` [Compound 52, 2-(4-(2-(3,4,5-trimethoxyphenylao)pyrimidin-4-ylthio)phenylao)acetonitrile], for which the GI50 (in test [1]; at BaF3 TELJAK3 cells) was less than 5 µM throughout.

Take `Cc1cnc(Nc2ccc(N3CCOCC3)cc2)nc1Sc1ccc(N)cc1` [Compound 126, 4-(4-aophenylthio)-5-methyl-N-(4-morpholinophenyl)pyrimidin-2-ae]: the GI50 (in test [1]; on BaF3 TELJAK3 cells) was less than 5 µM each time. Moreover, in the test on CTLL2, the IC50 is less than 5 µM.

Turning to `C=CC(=O)Nc1ccc(Sc2ccnc(Nc3ccc(S(=O)(=O)NCCC(C)C)cc3)n2)cc1` [Compound 371, N-(4-(2-(4-(N-isopentylsulfamoyl)phenylao)pyrimidin-4-ylthio)phenyl)acrylamide], the GI50 in test [1] was less than 20 µM; at BaF3 TELJAK3 cells, less than 5 µM. For the same molecule, the IC50 in the test on CTLL2 was less than 5 µM.

As to `C=CC(=O)Nc1ccc(Sc2ccnc(Nc3ccc(N4CCS(=O)(=O)CC4)cc3)n2)cc1` [Compound 99, N-{4-[(2-{[4-(1,1-dioxo-1λ^6,4-thiomorpholin-4-yl)phenyl]ao}pyrimidin-4-yl)sulfanyl]phenyl}prop-2-enamide], the GI50 in test [1] was more than 20 µM; on BaF3 TELJAK3 cells it was less than 1 µM.

In the case of `C=CC(=O)Nc1ccc(Sc2ccnc(Nc3cccc(N4CCCC4)c3)n2)cc1` [Compound 355, N-(4-(2-(3-(pyrrolidin-1-yl)phenylao)pyrimidin-4-ylthio)phenyl)acrylamide], the figures for the GI50 (in test [1]; on BaF3 TELJAK3 cells) were less than 20 µM and less than 5 µM, respectively. Besides, the IC50 in the test on CTLL2 is less than 5 µM.

In the case of `C=CC(=O)Nc1ccc(Sc2ccnc(Nc3cccc(S(=O)(=O)N4CCOCC4)c3)n2)cc1` [Compound 372, N-(4-(2-(3-(morpholinosulfonyl)phenylao)pyrimidin-4-ylthio)phenyl)acrylamide], the GI50 (in test [1]; at BaF3 TELJAK3 cells) was less than 5 µM each time. Besides, the IC50 in the test with CTLL2 was less than 5 µM.

As to `C=CC(=O)Nc1ccc(Sc2nc(Nc3ccc(N4CCOCC4)cc3)ncc2I)cc1` [Compound 313, N-(4-(5-iodo-2-(4-morpholinophenylao)pyrimidin-4-ylthio)phenyl)acrylamide], the GI50 was more than 20 µM in test [1] and less than 1 µM on BaF3 TELJAK3 cells. Moreover, the IC50 in the test on CTLL2 was less than 5 µM.

In the case of `COC(=O)COCC(=O)Nc1ccc(Sc2nc(Nc3ccc(N4CCOCC4)cc3)ncc2C)cc1` [Compound 189, methyl 2-(2-(4-(5-methyl-2-(4-morpholinophenylao)pyrimidin-4-ylthio)phenylao)-2-oxoethoxy)acetate], the GI50 (in test [1]; at BaF3 TELJAK3 cells) was less than 20 µM each time. The IC50 in the test on CTLL2 is more than 20 µM.

Take `C=CC(=O)Nc1ccc(Sc2nc(Nc3ccc(N4CCOCC4)cc3)ncc2C)cc1` [Compound 124, N-(4-(5-methyl-2-(4-morpholinophenylao)pyrimidin-4-ylthio)phenyl)acrylamide]: the GI50 in test [1] is more than 20 µM; on BaF3 TELJAK3 cells, less than 1 µM. In addition, the IC50 in the test on CTLL2 is less than 1 µM.

Regarding `C=CC(=O)Nc1ccc(Sc2ccnc(Nc3cccc(Cl)c3)n2)cc1` [Compound 348, N-(4-(2-(3-chlorophenylao)pyrimidin-4-ylthio)phenyl)acrylamide], the GI50 (in test [1]; at BaF3 TELJAK3 cells) was less than 5 µM each time.

Take `C=CC(=O)Nc1ccc(Sc2ccnc(Nc3ccc(C(=O)OC)cc3)n2)cc1` [Compound 357, methyl 4-(4-(4-acrylamidophenylthio)pyrimidin-2-ylao)benzoate]: the GI50 (in test [1]; at BaF3 TELJAK3 cells) was less than 5 µM throughout.

In the case of `C=CC(=O)Nc1ccc(Sc2nc(Nc3ccccc3O)ncc2C)cc1` [Compound 287, N-(4-(2-(2-hydroxyphenylao)-5-methylpyrimidin-4-ylthio)phenyl)acrylamide], the GI50 was more than 20 µM in test [1] and less than 20 µM on BaF3 TELJAK3 cells.

Consider `CC(=O)Nc1ccc(Sc2nc(Nc3ccc(N4CCOCC4)cc3)ncc2C)cc1` [Compound 135, N-(4-(5-methyl-2-(4-morpholinophenylao)pyrimidin-4-ylthio)phenyl)acetamide], for which the results for the GI50 (in test [1]; at BaF3 TELJAK3 cells) were less than 20 µM and more than 20 µM, respectively.
